In ChEMBL document CHEMBL4196035, “Discovery and optimization of ATX inhibitors via modeling, synthesis and biological evaluation” (Eur J Med Chem, 2018):
Each block holds one molecule with its values, some of them ahead of it.

Key:
Autotaxin [1] = target: T1, Autotaxin (Homo sapiens, UniProt Q13822); assay: Inhibition of human ENPP2 using FS3 as substrate measured every 5 mins for 30 mins by fluorescence assay
Autotaxin [2] = target: T1, Autotaxin; assay: Inhibition of human ENPP2 using bis-pNPP as substrate measured every 10 secs for 10 mins by spectrophotometric assay
Autotaxin [3] = target: T1, Autotaxin; assay: Inhibition of ENPP2 in human plasma using LPC as substrate preincubated for 15 mins followed by substrate addition measured after 3 hrs by LC-MS/MS analysis
Autotaxin [4] = target: T1, Autotaxin; assay: Inhibition of ENPP2 in human SKHEP1 cells using LPC as substrate preincubated for 15 mins followed by substrate addition measured after 3 hrs by LC-MS/MS analysis; assay type: cell-based
Autotaxin [5] = target: T1, Autotaxin; assay: Inhibition of ENPP2 in human A2058 cells using LPC as substrate preincubated for 15 mins followed by substrate addition measured after 3 hrs by LC-MS/MS analysis; assay type: cell-based
[6] = AUC in Sprague-Dawley rat at 2 mg/kg, iv administered as single bolus dose by HPLC-MS/MS analysis; assay type: ADME, organism-based; conditions: in vivo
Rattus norvegicus [7] = assay: Dose normalized AUC in Sprague-Dawley rat at 2 mg/kg, iv administered as single bolus dose by HPLC-MS/MS analysis; assay type: ADME, organism-based; conditions: in vivo
[8] = Clearance in Sprague-Dawley rat at 2 mg/kg, iv administered as single bolus dose by HPLC-MS/MS analysis; assay type: ADME, organism-based; conditions: in vivo
[9] = Volume of distribution at steady state in Sprague-Dawley rat at 2 mg/kg, iv administered as single bolus dose by HPLC-MS/MS analysis; assay type: ADME, organism-based; conditions: in vivo, read-out: Vdss
[10] = Cmax in Sprague-Dawley rat at 2 mg/kg, iv administered as single bolus dose by HPLC-MS/MS analysis; assay type: ADME, organism-based; parameters: dose 2 mg/kg, route intravenous; conditions: in vivo
Rattus norvegicus [11] = assay: Dose normalized Cmax in Sprague-Dawley rat at 2 mg/kg, iv administered as single bolus dose by HPLC-MS/MS analysis; assay type: ADME, organism-based; conditions: in vivo
[12] = Tmax in Sprague-Dawley rat at 2 mg/kg, iv administered as single bolus dose by HPLC-MS/MS analysis; assay type: ADME, organism-based; conditions: in vivo
[13] = Terminal half life in Sprague-Dawley rat at 2 mg/kg, iv administered as single bolus dose by HPLC-MS/MS analysis; assay type: ADME, organism-based; conditions: in vivo, read-out: beta t1/2 (converted)
[14] = AUC in Sprague-Dawley rat at 10 mg/kg, iv administered as single bolus dose by HPLC-MS/MS analysis; assay type: ADME, organism-based; conditions: in vivo
Rattus norvegicus [15] = assay: Dose normalized AUC in Sprague-Dawley rat at 10 mg/kg, iv administered as single bolus dose by HPLC-MS/MS analysis; assay type: ADME, organism-based; conditions: in vivo
[16] = Clearance in Sprague-Dawley rat at 10 mg/kg, iv administered as single bolus dose by HPLC-MS/MS analysis; assay type: ADME, organism-based; conditions: in vivo
[17] = Volume of distribution at steady state in Sprague-Dawley rat at 10 mg/kg, iv administered as single bolus dose by HPLC-MS/MS analysis; assay type: ADME, organism-based; conditions: in vivo, read-out: Vdss
[18] = Cmax in Sprague-Dawley rat at 10 mg/kg, iv administered as single bolus dose by HPLC-MS/MS analysis; assay type: ADME, organism-based; parameters: dose 10 mg/kg, route intravenous; conditions: in vivo
Rattus norvegicus [19] = assay: Dose normalized Cmax in Sprague-Dawley rat at 10 mg/kg, iv administered as single bolus dose by HPLC-MS/MS analysis; assay type: ADME, organism-based; conditions: in vivo
[20] = Tmax in Sprague-Dawley rat at 10 mg/kg, iv administered as single bolus dose by HPLC-MS/MS analysis; assay type: ADME, organism-based; conditions: in vivo
[21] = Terminal half life in Sprague-Dawley rat at 10 mg/kg, iv administered as single bolus dose by HPLC-MS/MS analysis; assay type: ADME, organism-based; conditions: in vivo, read-out: beta t1/2 (converted)
[22] = AUC in Sprague-Dawley rat at 20 mg/kg, iv administered as single bolus dose by HPLC-MS/MS analysis; assay type: ADME, organism-based; conditions: in vivo
Rattus norvegicus [23] = assay: Dose normalized AUC in Sprague-Dawley rat at 20 mg/kg, iv administered as single bolus dose by HPLC-MS/MS analysis; assay type: ADME, organism-based; conditions: in vivo
[24] = Clearance in Sprague-Dawley rat at 20 mg/kg, iv administered as single bolus dose by HPLC-MS/MS analysis; assay type: ADME, organism-based; conditions: in vivo
[25] = Volume of distribution at steady state in Sprague-Dawley rat at 20 mg/kg, iv administered as single bolus dose by HPLC-MS/MS analysis; assay type: ADME, organism-based; conditions: in vivo, read-out: Vdss
[26] = Cmax in Sprague-Dawley rat at 20 mg/kg, iv administered as single bolus dose by HPLC-MS/MS analysis; assay type: ADME, organism-based; parameters: dose 20 mg/kg, route intravenous; conditions: in vivo
Rattus norvegicus [27] = assay: Dose normalized Cmax in Sprague-Dawley rat at 20 mg/kg, iv administered as single bolus dose by HPLC-MS/MS analysis; assay type: ADME, organism-based; conditions: in vivo
[28] = Tmax in Sprague-Dawley rat at 20 mg/kg, iv administered as single bolus dose by HPLC-MS/MS analysis; assay type: ADME, organism-based; conditions: in vivo
[29] = Terminal half life in Sprague-Dawley rat at 20 mg/kg, iv administered as single bolus dose by HPLC-MS/MS analysis; assay type: ADME, organism-based; conditions: in vivo, read-out: beta t1/2 (converted)
[30] = Half life in human liver microsomes at 5 uM preincubated for 10 mins followed by NADPH addition measured up to 60 mins by LC-MS/MS analysis; assay type: ADME, microsome
[31] = Half life in Sprague-Dawley rat liver microsomes at 5 uM preincubated for 10 mins followed by NADPH addition measured up to 60 mins by LC-MS/MS analysis; assay type: ADME, microsome
[32] = Metabolic stability in human liver microsomes assessed as parent compound remaining at 5 uM preincubated for 10 mins followed by NADPH addition measured after 60 mins by LC-MS/MS analysis; assay type: ADME, microsome; conditions: read-out: Stability
[33] = Metabolic stability in Sprague-Dawley rat liver microsomes assessed as parent compound remaining at 5 uM preincubated for 10 mins followed by NADPH addition measured after 60 mins by LC-MS/MS analysis; assay type: ADME, microsome; conditions: read-out: Stability

SMILES: O=C(Nc1ccc(CP(=O)(O)O)cc1)C1CCN(C(=O)OCc2ccccc2Cl)CC1
IC50 (Autotaxin [1]): 3.29 nM
IC50 (Autotaxin [2]): 213 nM

SMILES: NS(=O)(=O)Nc1ccc(NC(=O)C2CCN(C(=O)OCc3cc(Cl)cc(Cl)c3)CC2)cc1
IC50 (Autotaxin [1]): 8.9 nM
IC50 (Autotaxin [2]): 250 nM

SMILES: O=C(NO)c1ccc(NC(=O)C2CCN(C(=O)OCc3cc(Cl)cc(Cl)c3)CC2)cc1
IC50 (Autotaxin [1]): 18.7 nM
IC50 (Autotaxin [2]): 496 nM

SMILES: O=C(Nc1ccc(CP(=O)(O)O)cc1)C1CCN(C(=O)OCc2ccccc2)CC1
IC50 (Autotaxin [1]): 7.17 nM
IC50 (Autotaxin [2]): 255 nM

SMILES: NS(=O)(=O)Cc1ccc(NC(=O)C2CCN(C(=O)OCc3cc(Cl)cc(Cl)c3)CC2)cc1
IC50 (Autotaxin [1]): 4.62 nM
IC50 (Autotaxin [2]): 73.5 nM

SMILES: O=C(NC1CCN(C(=O)OCc2cc(Cl)cc(Cl)c2)C1)c1nc(CP(=O)(O)O)cs1 (centres undefined)
IC50 (Autotaxin [1]): 3.71 nM
IC50 (Autotaxin [2]): 54.7 nM

SMILES: O=C(Nc1ccc(CP(=O)(O)O)cc1)C1CCN(C(=O)OCc2ccccc2F)CC1
IC50 (Autotaxin [1]): 7.13 nM
IC50 (Autotaxin [2]): 453 nM

SMILES: O=C(O)Cc1ccc(NC(=O)C2CCN(C(=O)OCc3cc(Cl)cc(Cl)c3)CC2)cc1
IC50 (Autotaxin [1]): 8.44 nM
IC50 (Autotaxin [2]): 439 nM

SMILES: O=C(Nc1ccc(CP(=O)(O)O)cc1)C1CCN(C(=O)OCc2ccc(OC(F)(F)F)cc2)CC1
IC50 (Autotaxin [1]): 1.97 nM
IC50 (Autotaxin [2]): 3.12 nM

These reach a lower IC50 (Autotaxin [1]). Values come first.

IC50 (Autotaxin [1]): 1.79 nM
IC50 (Autotaxin [2]): 39.6 nM
SMILES: O=C(Nc1ccc(CP(=O)(O)O)cc1)C1CCN(C(=O)OCc2cccc(Cl)c2)CC1

IC50 (Autotaxin [1]): 1.75 nM
IC50 (Autotaxin [2]): 26.5 nM
SMILES: O=C(Nc1nc(CP(=O)(O)O)cs1)C1CCN(C(=O)OCc2cc(Cl)cc(Cl)c2)CC1

IC50 (Autotaxin [1]): 1.67 nM
IC50 (Autotaxin [2]): 2.78 nM
SMILES: O=C(Nc1ccc(CP(=O)(O)O)cc1)C1CCN(C(=O)OCc2ccc(OC(F)(F)F)cc2F)CC1

IC50 (Autotaxin [1]): 1.36 nM
IC50 (Autotaxin [2]): 5.22 nM
SMILES: O=C(NC1CCN(C(=O)OCc2cc(Cl)cc(Cl)c2)CC1)c1ccc(CP(=O)(O)O)cc1

IC50 (Autotaxin [1]): 1.23 nM
IC50 (Autotaxin [2]): 2.18 nM
IC50 (Autotaxin [3]): 136 nM
IC50 (Autotaxin [4]): 7.9 nM
IC50 (Autotaxin [5]): 1.3 nM
AUC [6]: 3050 ng·h/mL
AUC/dose (Rattus norvegicus [7]): 1.53 kg·h/L
clearance [8]: 11.3 mL/min/kg
Vd [9]: 0.15 L/kg
Cmax [10]: 33.1 µg/mL
Cmax/dose (Rattus norvegicus [11]): 16.6 kg/L
Tmax [12]: 1.2 min
half-life [13]: 17.4 min
AUC [14]: 12700 ng·h/mL
AUC/dose (Rattus norvegicus [15]): 1.27 kg·h/L
clearance [16]: 13.3 mL/min/kg
Vd [17]: 0.33 L/kg
Cmax [18]: 117 µg/mL
Cmax/dose (Rattus norvegicus [19]): 11.7 kg/L
Tmax [20]: 1.2 min
half-life [21]: 42.6 min
AUC [22]: 27000 ng·h/mL
AUC/dose (Rattus norvegicus [23]): 1.35 kg·h/L
clearance [24]: 12.2 mL/min/kg
Vd [25]: 2.24 L/kg
Cmax [26]: 200 µg/mL
Cmax/dose (Rattus norvegicus [27]): 9.98 kg/L
Tmax [28]: 1.2 min
half-life [29]: 245 min
half-life at 5 µM [30]: > 60 min
half-life at 5 µM [31]: > 60 min
remaining at 1 h, 5 µM [32]: > 99.9%
remaining at 1 h, 5 µM [33]: > 99.9%
SMILES: O=C(Nc1ccc(CP(=O)(O)O)cc1)C1CCN(C(=O)OCc2cc(Cl)cc(Cl)c2)CC1
